Experimental findings from patent US20240279240A1, “HETEROCYCLIC DERIVATIVES AS JANUS KINASE INHIBITORS” (CHIESI FARMACEUTICI S.P.A., priority 2021, published 2024) are described below.

A value given as a limit tells only on which side of the number the result lay.

One assay deals with JAK 1 (Homo sapiens, UniProt P23458). Put plainly: Biochemical potency on JAK1, TR-FRET LANCE Ultra kinase assay (examples 1-99). To be noted: ATP at Km (20 μM), read-out: JAK1 inhibitory activity (pIC50 class) (converted). In outline:
(§1)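 Each JAK isoform (human) was tested separately in a peptide-phosphorylation TR-FRET assay at ATP ≈ Km. Eleven compound concentrations, top 20 μM, 5-fold spacing. Values are IC50s from normalized-response curve fits.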
In general terms: Time-resolved FRET reads energy transfer from a long-lived donor to a nearby acceptor.

A further assay concerns the target JAK 2 (Homo sapiens, UniProt O60674). Briefly: Biochemical potency on JAK2, TR-FRET LANCE Ultra kinase assay (examples 1-99). Conditions: ATP at Km (0.7 μM), read-out: JAK2 inhibitory activity (pIC50 class) (converted). In short, it runs like this: as §1
The next assay deals with T1, JAK 3 (Homo sapiens, UniProt P52333).
T1 sequence (P52333 1-1124): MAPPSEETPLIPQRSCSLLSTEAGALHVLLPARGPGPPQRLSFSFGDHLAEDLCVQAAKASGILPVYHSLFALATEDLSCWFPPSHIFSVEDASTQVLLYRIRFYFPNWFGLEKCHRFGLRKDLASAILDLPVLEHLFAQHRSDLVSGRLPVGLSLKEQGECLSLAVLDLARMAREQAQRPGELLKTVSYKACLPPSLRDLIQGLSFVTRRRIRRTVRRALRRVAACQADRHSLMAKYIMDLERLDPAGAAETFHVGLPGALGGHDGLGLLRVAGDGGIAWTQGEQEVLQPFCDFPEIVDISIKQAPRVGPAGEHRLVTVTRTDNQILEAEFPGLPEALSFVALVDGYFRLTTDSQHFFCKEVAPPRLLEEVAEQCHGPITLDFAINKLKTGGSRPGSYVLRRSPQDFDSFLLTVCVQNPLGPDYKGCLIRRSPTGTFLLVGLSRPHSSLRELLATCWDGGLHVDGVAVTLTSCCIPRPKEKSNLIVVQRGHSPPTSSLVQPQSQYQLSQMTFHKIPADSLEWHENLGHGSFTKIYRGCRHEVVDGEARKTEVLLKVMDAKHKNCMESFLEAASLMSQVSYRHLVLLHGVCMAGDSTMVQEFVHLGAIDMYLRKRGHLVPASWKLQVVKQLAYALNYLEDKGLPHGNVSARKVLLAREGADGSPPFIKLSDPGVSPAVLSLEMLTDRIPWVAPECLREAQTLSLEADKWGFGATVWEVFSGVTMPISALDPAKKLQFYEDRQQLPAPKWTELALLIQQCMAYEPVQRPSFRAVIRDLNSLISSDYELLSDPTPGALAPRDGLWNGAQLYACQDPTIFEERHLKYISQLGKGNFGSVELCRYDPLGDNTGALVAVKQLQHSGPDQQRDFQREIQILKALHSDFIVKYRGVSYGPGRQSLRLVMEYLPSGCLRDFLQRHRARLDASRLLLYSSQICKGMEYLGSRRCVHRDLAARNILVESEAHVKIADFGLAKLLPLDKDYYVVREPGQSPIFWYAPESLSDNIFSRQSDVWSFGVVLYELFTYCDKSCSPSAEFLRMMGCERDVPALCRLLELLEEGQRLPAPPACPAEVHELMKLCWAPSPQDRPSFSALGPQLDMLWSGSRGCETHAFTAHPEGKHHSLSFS
Briefly: Biochemical potency on JAK3, TR-FRET LANCE Ultra kinase assay (examples 1-99). Conditions: ATP at Km (0.2 μM), read-out: JAK3 inhibitory activity (pIC50 class) (converted). In short, it runs like this:
as §1

The target in a further assay is TYK2 (Homo sapiens, UniProt P29597). Briefly: Biochemical potency on Tyk2, TR-FRET LANCE Ultra kinase assay (examples 1-99). Conditions: ATP at Km (12 μM), read-out: Tyk2 inhibitory activity (pIC50 class) (converted). In short, it runs like this: as §1
TYK2, sequence (P29597 whole entry): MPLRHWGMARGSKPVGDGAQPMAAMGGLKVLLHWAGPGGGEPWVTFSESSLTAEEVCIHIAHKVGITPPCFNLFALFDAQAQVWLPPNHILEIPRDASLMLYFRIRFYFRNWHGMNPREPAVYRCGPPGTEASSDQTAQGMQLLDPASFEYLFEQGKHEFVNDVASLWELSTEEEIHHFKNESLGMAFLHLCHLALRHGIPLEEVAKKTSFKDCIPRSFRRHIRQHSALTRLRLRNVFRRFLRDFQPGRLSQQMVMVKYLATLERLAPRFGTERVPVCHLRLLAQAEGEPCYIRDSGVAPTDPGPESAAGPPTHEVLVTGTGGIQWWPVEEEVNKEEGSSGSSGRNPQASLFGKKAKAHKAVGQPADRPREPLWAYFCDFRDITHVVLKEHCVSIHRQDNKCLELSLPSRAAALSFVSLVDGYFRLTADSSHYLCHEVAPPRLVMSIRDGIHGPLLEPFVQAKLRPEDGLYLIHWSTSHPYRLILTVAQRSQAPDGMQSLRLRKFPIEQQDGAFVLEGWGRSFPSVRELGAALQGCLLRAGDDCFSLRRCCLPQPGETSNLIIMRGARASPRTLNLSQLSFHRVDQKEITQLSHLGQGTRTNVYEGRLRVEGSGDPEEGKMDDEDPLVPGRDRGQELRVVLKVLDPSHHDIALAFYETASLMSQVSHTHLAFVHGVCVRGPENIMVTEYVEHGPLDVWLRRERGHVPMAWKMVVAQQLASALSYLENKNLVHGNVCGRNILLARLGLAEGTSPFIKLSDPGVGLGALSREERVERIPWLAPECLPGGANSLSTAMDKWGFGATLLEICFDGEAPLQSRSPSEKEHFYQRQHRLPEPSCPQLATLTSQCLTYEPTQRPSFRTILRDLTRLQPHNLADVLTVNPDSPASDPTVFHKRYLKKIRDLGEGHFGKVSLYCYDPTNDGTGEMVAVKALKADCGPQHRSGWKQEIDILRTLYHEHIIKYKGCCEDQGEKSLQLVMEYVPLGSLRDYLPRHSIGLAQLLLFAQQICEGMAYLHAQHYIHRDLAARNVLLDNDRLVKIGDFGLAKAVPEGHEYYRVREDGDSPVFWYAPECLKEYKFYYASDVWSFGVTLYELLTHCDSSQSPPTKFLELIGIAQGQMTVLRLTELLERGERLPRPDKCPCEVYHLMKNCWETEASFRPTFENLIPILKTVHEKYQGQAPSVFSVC

JAK 2, sequence (O60674 whole entry): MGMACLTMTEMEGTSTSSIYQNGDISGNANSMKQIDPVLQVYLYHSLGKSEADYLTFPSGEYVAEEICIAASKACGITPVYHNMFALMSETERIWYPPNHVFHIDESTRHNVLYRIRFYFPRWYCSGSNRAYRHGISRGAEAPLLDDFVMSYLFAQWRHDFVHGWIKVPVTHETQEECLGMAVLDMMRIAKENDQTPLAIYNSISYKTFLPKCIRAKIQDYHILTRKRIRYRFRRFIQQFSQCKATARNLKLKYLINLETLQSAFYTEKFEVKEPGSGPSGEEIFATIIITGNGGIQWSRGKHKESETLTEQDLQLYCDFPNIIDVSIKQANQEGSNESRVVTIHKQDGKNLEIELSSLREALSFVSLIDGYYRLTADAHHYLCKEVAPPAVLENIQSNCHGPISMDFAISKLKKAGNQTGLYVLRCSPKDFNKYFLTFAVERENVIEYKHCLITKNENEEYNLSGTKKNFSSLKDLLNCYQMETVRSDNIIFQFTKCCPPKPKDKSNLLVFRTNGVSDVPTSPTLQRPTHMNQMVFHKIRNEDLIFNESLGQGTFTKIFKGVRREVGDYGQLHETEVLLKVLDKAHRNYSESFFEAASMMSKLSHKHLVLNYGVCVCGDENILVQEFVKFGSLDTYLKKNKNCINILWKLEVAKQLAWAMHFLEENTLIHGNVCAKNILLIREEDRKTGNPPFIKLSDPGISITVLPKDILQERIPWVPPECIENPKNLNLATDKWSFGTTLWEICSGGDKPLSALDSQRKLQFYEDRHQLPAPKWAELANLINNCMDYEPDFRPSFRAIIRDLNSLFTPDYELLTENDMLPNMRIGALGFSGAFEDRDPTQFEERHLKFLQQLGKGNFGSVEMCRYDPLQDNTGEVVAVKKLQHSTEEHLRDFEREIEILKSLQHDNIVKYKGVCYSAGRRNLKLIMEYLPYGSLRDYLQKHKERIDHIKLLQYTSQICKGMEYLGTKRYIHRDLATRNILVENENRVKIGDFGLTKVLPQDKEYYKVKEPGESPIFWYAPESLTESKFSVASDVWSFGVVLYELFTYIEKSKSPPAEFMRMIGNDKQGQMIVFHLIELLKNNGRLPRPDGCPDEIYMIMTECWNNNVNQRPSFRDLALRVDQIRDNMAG
JAK 1, sequence (P23458 whole entry, canonical isoform): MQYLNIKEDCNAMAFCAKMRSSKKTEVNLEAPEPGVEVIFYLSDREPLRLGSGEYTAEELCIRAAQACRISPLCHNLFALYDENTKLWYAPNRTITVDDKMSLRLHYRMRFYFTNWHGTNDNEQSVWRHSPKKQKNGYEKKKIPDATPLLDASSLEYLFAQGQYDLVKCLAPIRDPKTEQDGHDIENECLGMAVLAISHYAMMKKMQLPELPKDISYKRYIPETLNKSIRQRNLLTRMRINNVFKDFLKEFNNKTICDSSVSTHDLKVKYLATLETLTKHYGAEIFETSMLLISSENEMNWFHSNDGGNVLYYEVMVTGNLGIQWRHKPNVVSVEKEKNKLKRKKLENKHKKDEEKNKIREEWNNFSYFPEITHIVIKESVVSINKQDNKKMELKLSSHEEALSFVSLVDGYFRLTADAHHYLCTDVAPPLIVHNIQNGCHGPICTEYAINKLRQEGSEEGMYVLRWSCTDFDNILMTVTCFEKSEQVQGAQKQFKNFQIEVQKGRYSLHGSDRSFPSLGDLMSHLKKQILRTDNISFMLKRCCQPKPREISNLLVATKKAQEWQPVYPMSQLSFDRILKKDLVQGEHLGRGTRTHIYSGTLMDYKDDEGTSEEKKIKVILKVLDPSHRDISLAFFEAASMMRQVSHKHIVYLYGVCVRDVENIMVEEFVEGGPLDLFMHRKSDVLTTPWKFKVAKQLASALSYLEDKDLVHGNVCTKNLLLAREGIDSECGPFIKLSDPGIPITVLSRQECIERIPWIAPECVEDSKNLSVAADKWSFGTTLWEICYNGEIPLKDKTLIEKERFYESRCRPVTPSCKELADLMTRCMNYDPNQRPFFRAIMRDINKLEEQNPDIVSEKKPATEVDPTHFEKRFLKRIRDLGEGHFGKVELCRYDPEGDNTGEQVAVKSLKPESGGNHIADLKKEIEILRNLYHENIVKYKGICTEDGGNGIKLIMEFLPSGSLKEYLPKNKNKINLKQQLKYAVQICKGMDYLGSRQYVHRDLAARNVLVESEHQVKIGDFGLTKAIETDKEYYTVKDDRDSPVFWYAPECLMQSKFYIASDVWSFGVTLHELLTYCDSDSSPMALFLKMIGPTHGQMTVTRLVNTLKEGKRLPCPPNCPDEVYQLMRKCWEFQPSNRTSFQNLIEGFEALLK

Regarding `Cc1nn(-c2cc(S(=O)(=O)CC(N)=O)ccc2OC(F)F)c2cc(-c3cnn4cccnc34)ncc12` [Example 70, 2-((4-(difluoromethoxy)-3-(3-methyl-6-(pyrazolo[1,5-a]pyrimidin-3-yl)-1H-pyrazolo[4,3-c]pyridin-1-yl)phenyl)sulfonyl)acetamide], the IC50 at JAK 1 was 5.01 to 50.1 nM; at JAK 2, not above 5.01 nM; at JAK 3, not above 5.01 nM; at TYK2 it was more than 50.1 nM.
Regarding `Cc1nn(-c2cc(SC3CC3)ccc2OC(F)F)c2cc(-c3cnn4cccnc34)ncc12` [Example 71, 1-(5-(cyclopropylthio)-2-(difluoromethoxy)phenyl)-3-methyl-6-(pyrazolo[1,5-a]pyrimidin-3-yl)-1H-pyrazolo[4,3-c]pyridine], the IC50 at JAK 1 is 5.01 to 50.1 nM; at JAK 2 it was 5.01 to 50.1 nM; at JAK 3, 5.01 to 50.1 nM; at TYK2 it was more than 50.1 nM.
Turning to `Cc1nn(-c2cc(SC3CCOCC3)ccc2OC(F)F)c2cc(-c3cnn4cccnc34)ncc12` [Example 72, 1-(2-(difluoromethoxy)-5-((tetrahydro-2H-pyran-4-yl)thio)phenyl)-3-methyl-6-(pyrazolo[1,5-a]pyrimidin-3-yl)-1H-pyrazolo[4,3-c]pyridine], the IC50 on JAK 1 was 5.01 to 50.1 nM; on JAK 2, 5.01 to 50.1 nM; at JAK 3, not above 5.01 nM; on TYK2, more than 50.1 nM.
As to `Cc1nn(-c2cc(SC3COC3)ccc2OC(F)F)c2cc(-c3cnn4cccnc34)ncc12` [Example 73, 1-(2-(difluoromethoxy)-5-(oxetan-3-ylthio)phenyl)-3-methyl-6-(pyrazolo[1,5-a]pyrimidin-3-yl)-1H-pyrazolo[4,3-c]pyridine], the IC50 at JAK 1 is not above 5.01 nM; on JAK 2, not above 5.01 nM; at JAK 3, not above 5.01 nM; at TYK2, 5.01 to 50.1 nM.
In the case of `Cc1nn(-c2cc(SC3CCNCC3)ccc2OC(F)F)c2cc(-c3cnn4cccnc34)ncc12` [Example 74, 1-(2-(difluoromethoxy)-5-(piperidin-4-ylthio)phenyl)-3-methyl-6-(pyrazolo[1,5-a]pyrimidin-3-yl)-1H-pyrazolo[4,3-c]pyridine], the IC50 was more than 50.1 nM at JAK 1, 5.01 to 50.1 nM at JAK 2, 5.01 to 50.1 nM on JAK 3 and more than 50.1 nM on TYK2.
In the case of `CC(=O)N1CCC(Sc2ccc(OC(F)F)c(-n3nc(C)c4cnc(-c5cnn6cccnc56)cc43)c2)CC1` [Example 75, 1-(4-((4-(difluoromethoxy)-3-(3-methyl-6-(pyrazolo[1,5-a]pyrimidin-3-yl)-1H-pyrazolo[4,3-c]pyridin-1-yl)phenyl)thio)piperidin-1-yl)ethan-1-one], the IC50 on JAK 1 is 5.01 to 50.1 nM; on JAK 2 it was 5.01 to 50.1 nM; on JAK 3 it was 5.01 to 50.1 nM; at TYK2 it was more than 50.1 nM.
Turning to `NC1CN(Cc2nn(-c3cc(Cl)ccc3OC(F)F)c3cc(-c4cnn5cccnc45)ncc23)C1` [Example 76, 1-((1-(5-chloro-2-(difluoromethoxy)phenyl)-6-(pyrazolo[1,5-a]pyrimidin-3-yl)-1H-pyrazolo[4,3-c]pyridin-3-yl)methyl)azetidin-3-amine], the IC50 on JAK 1 is 5.01 to 50.1 nM; on JAK 2 it was 5.01 to 50.1 nM; on JAK 3, 5.01 to 50.1 nM; on TYK2, more than 50.1 nM.
As for `COc1ccc(Cl)cc1-n1nc(C(=O)N[C@H]2C[C@H](N)C2)c2cnc(-c3cnn4cccnc34)cc21` [Example 77, N-((1r,3r)-3-aminocyclobutyl)-1-(5-chloro-2-methoxyphenyl)-6-(pyrazolo[1,5-a]pyrimidin-3-yl)-1H-pyrazolo[4,3-c]pyridine-3-carboxamide], the IC50 at JAK 1, at JAK 2, at JAK 3 and at TYK2 was 5.01 to 50.1 nM throughout.
For `CNC(=O)CN(C)[C@H]1C[C@H](NC(=O)c2nn(-c3cc(Cl)ccc3OC)c3cc(-c4cnn5cccnc45)ncc23)C1` [Example 78, 1-(5-chloro-2-methoxyphenyl)-N-((1r,3r)-3-(methyl(2-(methylamino)-2-oxoethyl)amino)cyclobutyl)-6-(pyrazolo[1,5-a]pyrimidin-3-yl)-1H-pyrazolo[4,3-c]pyridine-3-carboxamide], the IC50 was 5.01 to 50.1 nM on JAK 1, 5.01 to 50.1 nM at JAK 2, 5.01 to 50.1 nM on JAK 3 and more than 50.1 nM at TYK2.
Regarding `COc1ccc(Cl)cc1-n1nc(C(=O)N[C@H]2C[C@H](N3CCOCC3)C2)c2cnc(-c3cnn4cccnc34)cc21` [Example 79, 1-(5-chloro-2-methoxyphenyl)-N-((1r,3r)-3-morpholinocyclobutyl)-6-(pyrazolo[1,5-a]pyrimidin-3-yl)-1H-pyrazolo[4,3-c]pyridine-3-carboxamide], the IC50 is 5.01 to 50.1 nM at JAK 1, 5.01 to 50.1 nM on JAK 2, 5.01 to 50.1 nM on JAK 3 and more than 50.1 nM on TYK2.
With `COc1ccc(Cl)cc1-n1nc(C(=O)N[C@H]2C[C@H](N(C)C)C2)c2cnc(-c3cnn4cccnc34)cc21` [Example 80, 1-(5-chloro-2-methoxyphenyl)-N-((1r,3r)-3-(dimethylamino)cyclobutyl)-6-(pyrazolo[1,5-a]pyrimidin-3-yl)-1H-pyrazolo[4,3-c]pyridine-3-carboxamide], the IC50 at JAK 1, on JAK 2, on JAK 3 and at TYK2 was 5.01 to 50.1 nM in each case.
With `N[C@H]1C[C@@H](NC(=O)c2nn(-c3cc(Cl)ccc3OC(F)F)c3cc(-c4cnn5cccnc45)ncc23)C1` [Example 81, N-((1s,3s)-3-aminocyclobutyl)-1-(5-chloro-2-(difluoromethoxy)phenyl)-6-(pyrazolo[1,5-a]pyrimidin-3-yl)-1H-pyrazolo[4,3-c]pyridine-3-carboxamide], the IC50 is 5.01 to 50.1 nM on JAK 1, more than 50.1 nM on JAK 2, 5.01 to 50.1 nM at JAK 3 and more than 50.1 nM on TYK2.
Regarding `COc1ccc(S(C)(=O)=O)cc1-n1nc(C(=O)NCCN(C)C)c2cnc(-c3cnn4cccnc34)cc21` [Example 82, N-(2-(dimethylamino)ethyl)-1-(2-methoxy-5-(methylsulfonyl)phenyl)-6-(pyrazolo[1,5-a]pyrimidin-3-yl)-1H-pyrazolo[4,3-c]pyridine-3-carboxamide], the IC50 at JAK 1 was 5.01 to 50.1 nM; on JAK 2, 5.01 to 50.1 nM; at JAK 3 it was 5.01 to 50.1 nM; at TYK2 it was more than 50.1 nM.
As to `COc1ccc(S(C)(=O)=O)cc1-n1nc(C(=O)NCCCN(C)C)c2cnc(-c3cnn4cccnc34)cc21` [Example 83, N-(3-(dimethylamino)propyl)-1-(2-methoxy-5-(methylsulfonyl)phenyl)-6-(pyrazolo[1,5-a]pyrimidin-3-yl)-1H-pyrazolo[4,3-c]pyridine-3-carboxamide], the IC50 on JAK 1 was 5.01 to 50.1 nM; on JAK 2, 5.01 to 50.1 nM; at JAK 3 it was 5.01 to 50.1 nM; on TYK2 it was more than 50.1 nM.
Consider `COc1ccc(S(C)(=O)=O)cc1-n1nc(C(=O)NCCCN2CCOCC2)c2cnc(-c3cnn4cccnc34)cc21` [Example 84, 1-(2-methoxy-5-(methylsulfonyl)phenyl)-N-(3-morpholinopropyl)-6-(pyrazolo[1,5-a]pyrimidin-3-yl)-1H-pyrazolo[4,3-c]pyridine-3-carboxamide], for which the IC50 at JAK 1 was 5.01 to 50.1 nM; on JAK 2, 5.01 to 50.1 nM; at JAK 3, 5.01 to 50.1 nM; on TYK2, more than 50.1 nM.
